From the supplement of paper PMC10307832

Compound: C=C(c1ccc(C(=O)O)cc1)c1cc2c(cc1C)C(C)(C)CCC2(C)C [Bexarotene]
Experiment: relative viability (nuclei count vs DMSO), 5 days (fraction); higher = more cells survive
Outline: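 After an overnight hold at 37 °C, lung cancer cell lines in 1536-well plates were pinned with five library-drug doses (not always all listed), each √10 from the next, on vehicle-anchored plates. The cells stayed 5 days without fresh medium, then a one-step fix, permeabilisation and Hoechst stain preceded 4× imaging and MetaXpress nuclear counts. A plate passed only with control CV under 25% and at least one doubling. Viability is the median, over plates, of treated-well nuclei relative to vehicle-well nuclei.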

Row | Cell Line | relative viability (0.08 µM) | relative viability (0.253 µM) | relative viability (0.8 µM) | relative viability (2.53 µM) | relative viability (8 µM)
1 | 201T | 1.02 | 0.989 | 0.971 | 0.942 | 0.93
2 | A-427 | 1.06 | 0.963 | 0.954 | 0.895 | 0.893
3 | ABC-1 | 1 | 0.904 | 0.892 | 0.851 | 0.993
4 | BEN | 1.01 | 0.822 | 0.868 | 0.752 | 0.87
5 | CAL-12T | 0.989 | 0.992 | 0.981 | 0.844 | 0.917
6 | COR-L23 | 1.16 | 0.979 | 0.936 | 0.874 | 0.951
7 | COR-L 105 | 1.13 | 1.02 | 0.963 | 0.987 | 0.892
8 | Calu-6 | 1.04 | 1.03 | 0.955 | 1.02 | 1.06
9 | ChaGo-K-1 | 1.09 | 1.01 | 1 | 1.03 | 0.989
10 | EKVX | 0.974 | 0.98 | 0.97 | 1.02 | 0.891
11 | EMC-BAC-2 | 1.15 | 1.02 | 1 |  | 1.02
12 | EPLC-272H | 1 | 0.93 | 0.802 | 0.881 | 0.939
13 | H3255 | 1.07 | 0.949 | 1.05 | 0.988 | 1.01
14 | HARA | 1.04 | 1.03 | 0.838 | 0.925 | 0.875
15 | HCC-15 | 1.1 | 1.11 | 1.02 | 0.978 | 1.05
16 | HCC-44 | 0.981 | 1.02 | 0.889 | 0.976 | 0.932
17 | HCC-78 | 1.09 | 0.889 | 0.844 | 0.849 | 1.08
18 | HCC-366 | 1.06 | 0.998 | 1.02 | 0.999 | 1.02
19 | HCC-827 | 1.09 | 0.993 | 0.961 | 1.05 | 0.937
20 | HOP-62 | 1.13 | 1.11 | 1.15 | 1.04 | 1
21 | IA-LM | 0.876 | 0.906 | 0.806 | 0.774 | 0.831
22 | LC-2-ad | 0.989 | 1.08 | 1.06 | 1 | 0.98
23 | LCLC-97TM1 | 1.03 | 0.969 | 1.02 | 0.829 | 0.939
24 | LCLC-103H | 1.09 | 1.03 | 0.849 | 0.983 | 1.05
25 | LK-2 | 1.32 | 0.942 | 1.04 | 0.977 | 0.998
26 | LOU-NH91 | 1.04 | 0.957 | 0.952 | 0.869 | 0.926

Row | Cell Line | relative viability (0.08 µM) | relative viability (0.253 µM) | relative viability (0.8 µM) | relative viability (2.53 µM) | relative viability (8 µM)
27 | LU99A | 1.33 | 1.07 | 0.977 | 1.06 | 1.09
28 | LXF-289 | 1.19 | 1.18 | 1.16 | 1.17 | 1.29
29 | NCI-H23 | 1.17 | 0.927 | 0.952 | 0.82 | 0.899
30 | NCI-H322M | 1.08 | 1.03 | 0.937 | 0.988 | 1.01
31 | NCI-H358 | 1.04 | 1.14 | 0.871 | 0.974 | 1.05
32 | NCI-H441 | 1.31 | 1.1 | 1.04 | 0.969 | 1
33 | NCI-H460 | 1.04 | 0.976 | 0.986 | 0.944 | 0.946
34 | NCI-H520 | 1.06 | 0.869 | 0.865 | 0.852 | 0.972
35 | NCI-H522 | 1.14 | 0.872 | 0.957 | 0.816 | 1.02
36 | NCI-H596 | 0.956 | 0.848 | 0.957 | 0.994 | 0.919
37 | NCI-H647 | 1.03 | 1.08 | 0.896 | 0.924 | 0.874
38 | NCI-H650 | 1.19 | 1.03 | 0.986 | 0.822 | 0.919
39 | NCI-H661 | 1.04 | 0.998 | 0.934 | 0.922 | 0.91
40 | NCI-H727 | 0.961 | 0.978 | 0.916 | 1.05 | 1.04
41 | NCI-H838 | 1.04 | 1.03 | 1.04 | 1.04 | 0.996
42 | NCI-H1355 | 1.11 | 1.04 | 0.945 | 0.979 | 0.96
43 | NCI-H1395 | 1.06 | 0.905 | 1.01 | 0.75 | 0.957
44 | NCI-H1437 | 1.04 | 1.01 | 1.03 | 0.996 | 1.01
45 | NCI-H1563 | 1.03 | 0.911 | 0.868 | 0.938 | 0.987
46 | NCI-H1648 | 1.02 | 0.971 | 0.645 | 0.735 | 0.708
47 | NCI-H1650 | 1.01 | 0.897 | 0.912 | 0.785 | 0.844
48 | NCI-H1651 | 1.08 | 0.987 | 1.01 | 1.02 | 1
49 | NCI-H1666 | 1.03 | 0.924 | 0.913 | 0.98 | 0.857
50 | NCI-H1703 | 0.944 | 0.968 | 0.759 | 0.647 | 0.701
51 | NCI-H1734 | 1.04 | 0.966 | 0.989 | 0.881 | 0.879
52 | NCI-H1755 | 1.07 | 1.15 | 1.06 | 0.998 | 0.982

Row | Cell Line | relative viability (0.08 µM) | relative viability (0.253 µM) | relative viability (0.8 µM) | relative viability (2.53 µM) | relative viability (8 µM)
53 | NCI-H1792 | 0.904 | 0.886 | 0.672 | 0.632 | 0.769
54 | NCI-H1793 | 1.12 | 0.93 | 0.754 | 0.838 | 0.881
55 | NCI-H1915 | 1.13 | 1.05 | 0.999 | 0.951 | 0.904
56 | NCI-H1944 | 1.29 | 1.07 | 1.07 | 1.25 | 1.03
57 | NCI-H1975 | 1.05 | 1.04 | 1.09 | 1.01 | 1.2
58 | NCI-H1993 | 1.09 | 0.919 | 0.788 | 0.862 | 0.832
59 | NCI-H2009 | 1.21 | 1.22 | 1.11 | 1.08 | 1.07
60 | NCI-H2023 | 1.05 | 0.958 | 1.01 | 0.921 | 0.771
61 | NCI-H2085 | 0.981 | 0.979 | 0.903 | 0.869 | 0.901
62 | NCI-H2087 | 1.08 | 1.12 | 1.02 | 1.03 | 0.892
63 | NCI-H2126 | 1.02 | 1.01 | 0.954 | 0.991 | 0.971
64 | NCI-H2170 | 0.96 | 0.969 | 0.942 | 0.909 | 0.831
65 | NCI-H2228 | 1.02 | 1.24 | 1.03 | 0.819 | 0.947
66 | NCI-H2342 | 1.01 | 0.797 | 0.965 | 1.04 | 1.06
67 | NCI-H2347 | 1.18 | 1.04 | 0.809 | 0.981 | 1.07
68 | NCI-H2405 | 1.12 | 1.01 | 0.857 | 0.97 | 0.986
69 | NCI-H3122 | 1.05 | 1.11 | 1.03 | 1.04 | 1.05
70 | PC-3 [JPC-3] | 1.14 | 0.98 | 0.918 | 0.964 | 0.932
71 | PC-14 | 1.05 | 1.17 | 0.973 | 0.92 | 0.896
72 | RERF-LC-KJ | 0.96 | 0.969 | 0.909 | 0.87 | 0.847
73 | SK-LU-1 | 1.2 | 1.13 |  | 1.04 | 0.936
74 | SK-MES-1 | 1.16 | 1.12 | 1 | 0.98 | 0.909
75 | SW 900 | 0.874 | 0.948 | 0.726 | 0.684 | 0.888
76 | SW 1573 | 1.04 | 0.976 | 0.921 | 0.84 | 0.771
77 | UMC-11 | 0.976 | 0.952 | 0.917 | 0.917 | 0.963
